{
  "source": "paper PMC6736633",
  "about": "(Bioorganic & medicinal chemistry letters, 2019)",
  "tested_on": "Mycobacterium tuberculosis (Mtb) H37Rv",
  "assay": "Mtb luminescence assay",
  "format": "cell-based",
  "conditions": "for relative Mtb signal / reduction in Mtb signal (in words): 20 μM",
  "data": [
    {"smiles": "COc1cc2nccc(Nc3ccc(OCc4cccc(F)c4)c(Cl)c3)c2cc1OC", "note": "[Compound 28]", "values": [
      {"measurement": "relative Mtb signal", "result": 10, "unit": "%"}
    ]},
    {"smiles": "CS(=O)(=O)CCNCc1ccc(-c2ccc3ncnc(Nc4ccc(OCc5cccc(F)c5)c(Cl)c4)c3c2)o1", "note": "[Lapatinib]", "values": [
      {"measurement": "relative Mtb signal", "result": "below 10%"}
    ]},
    {"smiles": "COc1ccc2c(Nc3ccc(NC(=O)c4ccc(C)cc4)c(O)c3)ccnc2c1", "note": "[Compound 33]", "values": [
      {"measurement": "reduction in Mtb signal (in words)", "result": "no reduction"}
    ]},
    {"smiles": "COc1ccc2nccc(Nc3ccc(NC(=O)c4ccc(C)cc4)c(O)c3)c2c1", "note": "[Compound 32]", "values": [
      {"measurement": "reduction in Mtb signal (in words)", "result": "no reduction"}
    ]},
    {"smiles": "COc1cc2nccc(Nc3ccc(NC(C)=O)cc3)c2cc1OC", "note": "[Compound 31]", "values": [
      {"measurement": "effect on Mtb (in words)", "setting": "across tested concentrations up to 20 μM", "result": "no effect"}
    ]},
    {"smiles": "C#Cc1cccc(Nc2ncnc3cc(OCCOC)c(OCCOC)cc23)c1", "note": "[Erlotinib]", "values": [
      {"measurement": "Mtb signal at plateau", "setting": "plateau of effect", "result": "approximately 70%"}
    ]}
  ]
}
